In general, Cmax refers to the highest concentration seen after dosing.

The values below come from patent publication US9272035B2, “Methods and compositions using PDE4 inhibitors for the treatment and management of autoimmune and inflammatory diseases” (Celgene Corporation, priority 2011, dated 2016).

“And” between values parts separate entries of the source, which are not always exact repeats. Equal entries are not always repeated. “Also recorded” adds a separate entry of the source. Where two headings read alike, the source gives them in different places.

Series [1] has as its system rheumatoid arthritis synovial fibroblasts stimulated with IL-1, IL-6 and IL-6R. The experiment in a line: IL-7 gene expression assay in synovial fibroblasts. In kind it is cell-based, human. The method, then: (§1) IL-7 Gene Expression Assay: […] Normal primary human chondrocytes and rheumatoid arthritis synovial fibroblasts purchased from Asterand (Detroit, Mich.) were thawed into a T-75 flask and cultured for 2-3 weeks to reach confluency. The media was 20% premium non-heat inactivated FBS-DMEM/F-12 (Invitrogen 11330-032)+1% pen/strep and 1% L-Glutamine. […] Upon reaching 90% confluency (usually in 1-2 days post-plating), the cells were serum starved for 20 hours by replacing the complete media with 2 ml serum-free media. The cells were treated with the test compounds for 1 hour at 37° C. […] The cells were then washed with cold PBS. Ribonucleic acid (RNA) was isolated by adding 600 μl RLT lysis buffer (Qiagen RNAEasy kit cat#74104), passing the cells through the Qiashredder (Qiagen cat#23800) followed by RNA isolation according to manufacturers' instructions (Qiagen RNAEasy kit). Purified RNA was reverse transcribed into cDNA with thermal cycler for real-time reverse transcriptase polymerase chain reaction (RTPCR) analysis. Interleukin-7 gene expression assays were carried out using the 7500 Real Time PCR system. A GAPDH gene expression assay control was run for each sample and was used as a normalization control.

For series [2] the following is noted: cited from earlier work.
Series [3] has as its system Human peripheral blood total T cells stimulated with anti-CD3 antibody. As to the kind of experiment: Cytokine and chemokine production by anti-CD3-stimulated T cells (cytometric bead array, Luminex 100). In kind it is cell-based. As for the experimental part:
(§2) Cytokine and chemokine protein levels were analyzed by cytometric bead array on a Luminex 100. CAIA model: […] Compound A and ETN were administered once daily on days 3-13. […] Both hind paws (left and right) of each animal were examined for signs of arthritogenic responses in blinded fashion. Arthritic reactions were scored and recorded according to a 0-4 scale in ascending order of severity. Hind paw thickness was measured in mm using a Mitutoyo Electronic Digital Caliper.

Series [4] concerns mAB/LPS-induced experimental arthritis. As to the kind of experiment: Antibody-induced arthritis in mice (mAb/LPS model, 11 treatment days).
In series [5] the test system is normal primary human chondrocytes stimulated with IL-1, IL-6 and IL-6R. As to the kind of experiment: IL-7 gene expression assay in chondrocytes. The format is cell-based. The method, then:
as §1

Series [6] deals with stimulated primary human normal chondrocytes. The experiment in a line: Cell surface protein expression assay (flow cytometry). In kind it is cell-based. The method, then: Cell Surface Protein Expression Assay: Normal primary human chondrocyte were thawed into a T-75 flask and grown for 2-3 weeks to reach confluency in 20% premium non-heat inactivated FBS-DMEM/F-12 (Invitrogen 11330-032)+1% pen/strep and 1% L-Glutamine. The cells were plated (1.0×10^6 cells/10 ml of complete media) in a 100×20 mm tissue culture plate. The next day, the media was replaced with 10 ml serum-free media for 20 min to serum starve the cells. Compound A (0.1-10 μM) was added for 1 hour at 37° C. (0.25% final DMSO). In addition, cytokines IL-1β (10 ng/ml), IL-6 (10 ng/ml), and IL-6R (20 ng/ml) were added and the cells continued incubation overnight (18 hours) at 37° C. The cells were harvested by a non-enzymatic cell dissociation solution (Millipore S-004-B) then washed once in cold stain buffer (BD Pharmigen 554656) at 300×g for 5 minutes. The cells were resuspended and aliquoted into three 5 ml round bottom tubes plus two additional aliquots for control. The cells were washed again in cold stain buffer at 300×g for 5 minutes. The cells were stained with PE mouse anti-human: CD54 (ICAM-1) (BD Pharmigen 555511) and Integrin αVβ3 anti (Millipore MAB1976H). The samples were vortexed and incubated for 30 minutes at 4° C. while being protected from light. […] After a final wash, 500 μl of stain buffer was added to each sample and analyzed by flow cytometry.
In general terms: A flow cytometer gives signals particle by particle.

A short description of series [7]: Pharmacokinetic data for study drugs. On the set-up: species or system RA patients. As to conditions: human, in vivo; for concentration at 7 day: read-out: Cmin.
Series [8] has as its system Human bone marrow cells. The experiment in a line: Osteoclastogenesis induced by dexamethasone and Vitamin D. The format is cell-based. As to conditions: 10 nM dexamethasone and 10 nM Vitamin D; day 7. The method, then: Human bone marrow cells were treated with Compound A and with 10 nM dexamethasone and 10 nM Vitamin D to differentiate cells into osteoclasts. Fresh media and Compound A were added every 3 days. At day 7 supernatant was collected and adherent cells were isolated to obtain RNA. Day 7 cells were stained with TRAPS and the number of osteoclasts was counted.

Series [9] concerns mAB/LPS-induced experimental arthritis. As to the kind of experiment: mAB/LPS-induced experimental murine arthritogenic model, paw thickness (five treatment days). The format is in vivo, BALB/c male mice. The method, then: The mice were administered with 1, 5 and 25 mg/kg once daily oral (PO) gavage throughout five successive treatment days.
The test system of series [10] is Normal human osteoblast cells (nHOST). The experiment in a line: Osteoblast production of RANKL and OPG (ELISA). The format is cell-based. As to conditions: 7 days with 10 nM dexamethasone and 10 nM Vitamin D. As for the experimental part:
Normal human osteoblast cells (nHOST, source: Lonza) were plated in 6 well plates and incubated overnight for cell attachment. Cells were treated for 7 days with Compound A and with 10 nM dexamethasone and 10 nM Vitamin D. Compound and media was refreshed every 3-4 days. On Day 7 supernatent was collected for RANKL and OPG by ELISA.
For orientation: In an ELISA, binding on a coated surface is turned into a signal by an enzyme label.

For series [11], the system named is mAB/LPS-induced experimental arthritis. As to the kind of experiment: Histopathological evaluation of the tibiotarsal joint of arthritic mice. On the set-up: key to Fibrin deposition / Inflammatory infiltration in the synovial membrane / Pannus formation (reflected by proliferation of granulation tissue) / Cartilage disruption / Hyaline cartilage destruction (reflected by resorption/erosion in the cartilage) / Subchondral bone destruction (reflected by resorption/erosion by osteoclasts and loss of bone) / Overall assessment: “determined as arthritis” / Synovial hyperplasia / Synovial villus formation: 0=unremarkable; 1=minimal; 2=mild; 3=moderate; 4=marked. The format is in vivo. Particulars: 25 mg/kg. As for the experimental part: Compound A), total 16 animals were tested with Vehicle Control or 25 mg/kg of (+) isomer for histopathological evaluation. […] Each limb from the middle of the tibia and distally, to include the ankle joint, i.e., the joint between the leg and foot (tibial-tarsus joint), was trimmed mid-longitudinally, and both halves were embedded in paraffin and slides of 6 micron thickness were cut and stained by hematoxylin and eosin. Histopathological changes in the joints were described and scored, using semiquantitative grading of five grades (0-4), taking into consideration the severity of the changes (0=unremarkable, 1=minimal, 2=mild, 3=moderate, 4=marked). […] All typical ranges of changes characteristically seen in this arthritis were noted.

Series [12] has as its system collagen antibody-induced arthritis. The experiment in a line: Mouse model of collagen antibody-induced arthritis (CAIA). In kind it is in vivo, Male BALB/c mice. The method, then:
as §2

Where [13] appears, read: tibiotarsal joint, grade 0-4, individual animals No. 25-32.

For the molecule etanercept, the IL-7 gene expression result in series [1] (comparators) is given as “no significant effects”. Also, the “Cmax (ng/ml)” value in [2] (RA patient 6 months 25-mg biweekly) is recorded as 3000 (1700 to 5600) ng/ml. For the same molecule, in [2] (RA patients 50-mg weekly), the “Cmax (ng/ml)” value was “weekly: 2400 ± 1500 ng/ml”. Also, the “Cmin” value in series [2] (RA patients) is 1200 ± 700 ng/mL. The “maximum plasma concentration (Cmax)” value in series [2] is 1600 ng/mL. The Bioavailability in series [2] (in vivo) is reported as 76%. Further, in [3] (anti-CD3 antibody, 2 days), the “IC50, IL-13 and IP-10” value was in the range of 0.016 to 0.062 µg/mL; the “IC50, TNF-α” value is 0.0015 µg/mL. Further, the “mean group arthritogenic scoring value of both hind paws” value in series [4] (6.25 mg/kg, p<0.001 vs. Vehicle Control, study days 7, 9, 11 and 14) was “highly to extremely statistically lower (p<0.01 & p<0.001, respectively)”.
Regarding `CN(Cc1cnc2nc(N)nc(N)c2n1)c1ccc(C(=O)N[C@@H](CCC(=O)O)C(=O)O)cc1` [MTX, methotrexate], the IL-7 gene expression result in [1] (comparators) is reported as “no significant effects”. In [2] (Depending on RA patients), the “Cmax” value was 300 to 1040 ng/mL. For the same molecule, the “maximum plasma concentration (Cmax)” value in [2] is 400 ng/mL.
As for `CCOc1cc([C@@H](CS(C)(=O)=O)N2C(=O)c3cccc(NC(C)=O)c3C2=O)ccc1OC` [Compound A, (S)-N-(2-(1-(3-ethoxy-4-methoxyphenyl)-2-(methylsulfonyl)ethyl)-1,3-dioxoisoindolin-4-yl)acetamide], the IL-7 gene expression result in series [5] (0.1-10 μM, normal primary human chondrocytes) is recorded as “significantly inhibited”. Also, the “inhibition of IL-7 gene expression compared with methotrexate and etanercept” value in series [5] (dose ranges encompassing the respective Cmax of MTX and ETC) was “more effective inhibitor of IL-7 gene expression than methotrexate and etanercept”. In addition, the IL-7 gene expression result in series [1] (0.1-10 μM) is “significantly inhibited”. Also, in series [6], the “alpha-v-beta-3 (αvβ3) integrin expression” value is listed as “inhibited expression” and the “intercellular adhesion molecule 1 (ICAM-1) expression” value was “inhibited expression”. In addition, in series [7] (20-mg, day-7), the concentration peaked (Cmax) at 419 ng/mL and the concentration at 7 day was found to be 4.9 ng/mL. Besides, in series [8], the “osteoclast formation (osteoclastogenesis)” value was “inhibit osteoclast formation; also recorded: significantly inhibits osteoclastogenesis”. Further, the “hind paw thickness (suppression of paw swelling)” value in series [9] (5 mg/kg PO once daily, limited to Day 9, vs. Vehicle Control) was “A lesser extent (p<0.05 vs. Vehicle Control)”. The “hind paw thickness (suppression of paw swelling)” value in series [9] (25 mg/kg PO once daily, vs. Vehicle Control) is “highly statistically significant (p<0.01 vs. Vehicle Control) and constant suppression of paw swelling; also recorded: statistically significant reduction of paw swelling”. Besides, the sRANKL entry in series [10] (1 μM and 10 μM) is “significant decrease”. In [10], the OPG entry was “increase” and the RANKL/OPG ratio result is given as “significantly inhibit”. Further, in series [3] (anti-CD3 antibody, 2 days, range over all analytes), the “IC50s, production of all T cell cytokines and chemokines measured (IL-2, IL-4, IL-13, IFN-γ, TNF-α, CXCL10, CCL3, and CCL4)” value lay within 0.015 to 0.36 µg/mL. In addition, the “inhibition of IL-2, IL-4, IL-13, IFN-γ, TNF-α, CXCL10, CCL3, and CCL4” value in [3] (human T cells) is “resulted in inhibition”. Moreover, the “mean group arthritogenic scoring value of both hind paws” value in series [4] (25 mg/kg, vs. Vehicle Control on Days 9, 11 and 14, respectively) is recorded as “statistically to extremely significant reductions (p<0.05, p<0.01, p<0.001)”. The treatment-related adverse reactions entry in [4] (5 and 25 mg/kg PO once daily, 11 days, 14-day observation period) is “No obvious treatment-related adverse reactions”. Also, in series [4] (5 or 25 mg/kg, vs. Vehicle Control, Days 7, 9, 11 & 14), the “mean group percentage change in hind paw thickness vs. arthritis induction initiation (Day 0)” value was “highly significantly lower (P<0.01)”. The “arthritis by histopathological evaluation” value in series [11] (all samples from treated animals) is listed as “practically no existing arthritis”. Moreover, in series [11] (setting [13]), the Cartilage disruption is 0; the Fibrin deposition is 0 (6×) and 1 (2×); the “Hyaline cartilage destruction (reflected by resorption/erosion in the cartilage)” value was 0; the “Inflammatory infiltration in the synovial membrane” value came out at 0. Further, in series [11] (setting [13]), the “Overall assessment: “determined as arthritis”” value is given as 0; the “Pannus formation (reflected by proliferation of granulation tissue)” value is 0; the “Subchondral bone destruction (reflected by resorption/erosion by osteoclasts and loss of bone)” value is recorded as 0; the Synovial hyperplasia turned out to be 0. For the same molecule, in [11] (setting [13]), the Synovial villus formation worked out at 0. The “arthritis by histopathological analysis” value in series [12] (25 mg/kg) is given as “practically no existing arthritis”. Further, in [12] (5 and 25 mg/kg orally once daily on days 3-13), the “hind-paw arthritic reaction scores and thickness” value is reported as “significantly reduced (p<0.01)”. The “synovial hyperplasia, synovial villus formation, fibrin deposition, inflammatory infiltration in the synovial membrane, pannus formation, cartilage disruption, and subchondral bone destruction” value in series [12] (high dose) is on record as “inhibited”.
Take `CCOc1cc([C@@H](CS(C)(=O)=O)N2Cc3cccc(NC(=O)C4CC4)c3C2=O)ccc1OC` [Compound B, (S)-N-(2-(1-(3-ethoxy-4-methoxyphenyl)-2-(methylsulfonyl)ethyl)-3-oxoisoindolin-4-yl)cyclopropanecarboxamide]: in series [7] (200-mg day-7), the peak level (Cmax) was 195 ng/mL and the concentration at 7 day was 40 ng/mL.
